How the values were obtained:
[1] = system: Mus musculus; test: Analgesic activity in albino mouse assessed as effect on […] at 10 mg/kg, ip after 0.5 hrs by hot plate test; type: functional; conditions: route intraperitoneal
[2] = system: Rattus norvegicus; test: Antiinflammatory activity in albino rat assessed as inhibition of carrageenan-induced paw edema at 10 mg/kg, ip after 2 hrs; type: functional; conditions: route intraperitoneal
[3] = system: Rattus norvegicus; test: Antiinflammatory activity in albino rat assessed as inhibition of carrageenan-induced paw edema at 10 mg/kg, ip after 0.5 hrs; type: functional; conditions: route intraperitoneal
[4] = system: Rattus norvegicus; test: Antiinflammatory activity in albino rat assessed as inhibition of carrageenan-induced paw edema at 10 mg/kg, ip after 5 hrs; type: functional; conditions: route intraperitoneal
[5] = system: Mus musculus; test: Analgesic activity in albino mouse assessed as effect on […] at 10 mg/kg, ip after 5 hrs by hot plate test; type: functional; conditions: route intraperitoneal
[6] = system: Rattus norvegicus; test: Antiinflammatory activity in albino rat assessed as inhibition of carrageenan-induced paw edema at 10 mg/kg, ip after 1 hrs; type: functional; conditions: route intraperitoneal
[7] = system: Mus musculus; test: Analgesic activity in albino mouse assessed as effect on […] at 10 mg/kg, ip after 2 hrs by hot plate test; type: functional; conditions: route intraperitoneal
[8] = system: Mus musculus; test: Analgesic activity in albino mouse assessed as effect on […] at 10 mg/kg, ip after 3 hrs by hot plate test; type: functional; conditions: route intraperitoneal
[9] = system: Mus musculus; test: Analgesic activity in albino mouse assessed as effect on […] at 10 mg/kg, ip after 1 hrs by hot plate test; type: functional; conditions: route intraperitoneal
[10] = system: Rattus norvegicus; test: Antiinflammatory activity in albino rat assessed as inhibition of carrageenan-induced paw edema at 10 mg/kg, ip after 3 hrs; type: functional; conditions: route intraperitoneal
[11] = system: Rattus norvegicus; test: Antiinflammatory activity in albino rat assessed as inhibition of carrageenan-induced paw edema at 10 mg/kg, ip after 4 hrs; type: functional; conditions: route intraperitoneal
[12] = system: Mus musculus; test: Analgesic activity in albino mouse assessed as effect on […] at 10 mg/kg, ip after 4 hrs by hot plate test; type: functional; conditions: route intraperitoneal
[13] = system: Mus musculus; test: Acute toxicity in ip dosed albino mouse upto 250 mg/kg after 72 hrs; type: organism-based; parameters: dose 250 mg/kg, route intraperitoneal; conditions: in vivo

Structure (SMILES)	Activity [1]	inhibition in vivo at 10 mg/kg [2]	inhibition in vivo at 10 mg/kg [3]	inhibition in vivo at 10 mg/kg [4]	Activity [5]	inhibition in vivo at 10 mg/kg [6]	Activity [7]	Activity [8]	Activity [9]	inhibition in vivo at 10 mg/kg [10]	inhibition in vivo at 10 mg/kg [11]	Activity [12]	Activity [13]
N#CC1=C(N)C2=C(c3ccccc3)C(c3ccccc3)=NNC2[Se]1 (centres undefined)	67.9%	29.4%	8.8%	44.4%	65.3%	9.9%	75.5%	79.8%	77.9%	29.4%	36.1%	75.5%	–
NC1=C(C(=O)c2ccccc2)[Se]C2NN=C(c3ccccc3)C(c3ccccc3)=C12 (centres undefined)	25.2%	26.4%	9%	38.8%	24.2%	9%	30.6%	36.5%	27.1%	29.4%	35.5%	31.9%	–
O=C1NC2(CCCCC2)NC2=C1[Se]C1NN=C(c3ccccc3)C(c3ccccc3)=C21 (centres undefined)	–	23.5%	8.7%	38.8%	–	9.9%	–	–	–	23.5%	30.5%	–	–
N#Cc1c(-c2ccccc2)c(-c2ccccc2)n[nH]c1=[Se]	–	20.5%	8.8%	30.5%	–	17.2%	–	–	–	23.5%	30.5%	–	–
NC(=O)C1=C(N)C2=C(c3ccccc3)C(c3ccccc3)=NNC2[Se]1 (centres undefined)	90.3%	26.4%	8.7%	50%	83.4%	14.7%	99.4%	98.4%	97.8%	44.4%	47.2%	90.5%	Non-toxic
CCOC(=O)C1=C(N)C2=C(c3ccccc3)C(c3ccccc3)=NNC2[Se]1 (centres undefined)	21.6%	23.5%	8.8%	44.4%	33.4%	17.2%	39.8%	41.3%	42.8%	35.2%	41.6%	39.6%	–
CC(=O)C1=C(N)C2=C(c3ccccc3)C(c3ccccc3)=NNC2[Se]1 (centres undefined)	–	20.5%	8.8%	33.5%	–	17.2%	–	–	–	20.5%	28.5%	–	–
CC(=O)Oc1ccccc1C(=O)O [ASPIRIN]	36.2%	–	–	–	30.01%	–	50.5%	45.6%	58.9%	–	–	39.2%	–
COc1ccc2c(c1)c(CC(=O)O)c(C)n2C(=O)c1ccc(Cl)cc1 [INDOMETHACIN]	–	32.3%	11.7%	57.5%	–	20.5%	–	–	–	44.1%	52.7%	–	–
